{"source": "ChEMBL document CHEMBL4804284", "parameters_in_all_cases": "scale not given: the % may be the effect or the level left", "key": {"[1]": {"molecular_target": "Epidermal growth factor receptor (Homo sapiens) (UniProt P00533)", "assay": "Inhibition of DNA-tagged human EGFR assessed as percent of control at 50000 nM by qPCR analysis relative to control"}, "[2]": {"molecular_target": "Serine/threonine-protein kinase 17A (Homo sapiens) (UniProt Q9UEE5)", "assay": "Inhibition of DNA-tagged human DRAK1 assessed as percent of control at 50000 nM by qPCR analysis relative to control"}, "[3]": {"molecular_target": "Casein kinase I isoform alpha (Homo sapiens) (UniProt P48729)", "assay": "Inhibition of DNA-tagged human CSNK1A1 assessed as percent of control at 50000 nM by qPCR analysis relative to control"}, "[4]": {"molecular_target": "Cyclin-dependent kinase-like 5 (Homo sapiens) (UniProt O76039)", "assay": "Inhibition of DNA-tagged human CDKL5 assessed as percent of control at 50000 nM by qPCR analysis relative to control"}, "[5]": {"molecular_target": "Cyclin-dependent kinase 5 (Homo sapiens) (UniProt Q00535)", "sequence (Q00535 whole entry, looked up)": "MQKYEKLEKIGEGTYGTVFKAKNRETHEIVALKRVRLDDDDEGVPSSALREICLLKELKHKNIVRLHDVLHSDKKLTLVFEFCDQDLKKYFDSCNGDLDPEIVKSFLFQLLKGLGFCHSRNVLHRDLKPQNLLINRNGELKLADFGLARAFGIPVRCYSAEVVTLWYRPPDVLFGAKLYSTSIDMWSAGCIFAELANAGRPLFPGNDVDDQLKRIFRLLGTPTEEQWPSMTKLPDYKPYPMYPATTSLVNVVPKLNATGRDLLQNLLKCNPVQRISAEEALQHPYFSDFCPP", "assay": "Inhibition of DNA-tagged human CDK5 assessed as percent of control at 50000 nM by qPCR analysis relative to control"}, "[6]": {"molecular_target": "Calcium/calmodulin-dependent protein kinase type II subunit gamma (Homo sapiens) (UniProt Q13555)", "assay": "Inhibition of DNA-tagged human CAMK2G assessed as percent of control at 50000 nM by qPCR analysis relative to control"}, "[7]": {"molecular_target": "Calcium/calmodulin-dependent protein kinase type II subunit beta (Homo sapiens) (UniProt Q13554)", "assay": "Inhibition of DNA-tagged human CAMK2B assessed as percent of control at 50000 nM by qPCR analysis relative to control"}, "[8]": {"molecular_target": "Tyrosine-protein kinase BTK (Homo sapiens) (UniProt Q06187)", "assay": "Inhibition of DNA-tagged human BTK assessed as percent of control at 50000 nM by qPCR analysis relative to control"}, "[9]": {"molecular_target": "ALK tyrosine kinase receptor (Homo sapiens) (UniProt Q9UM73)", "assay": "Inhibition of DNA-tagged human ALK assessed as percent of control at 50000 nM by qPCR analysis relative to control"}, "[10]": {"system": "Tyrosine-protein kinase ABL1 (Homo sapiens), P00519 [F317L]", "assay": "Inhibition of DNA-tagged phosphorylated human ABL1 F317L mutant assessed as percent of control at 50000 nM by qPCR analysis relative to control"}, "[11]": {"system": "Mast/stem cell growth factor receptor Kit (Homo sapiens), P10721 [D816V]", "assay": "Inhibition of DNA-tagged human KIT D816V mutant assessed as percent of control at 50000 nM by qPCR analysis relative to control"}, "[12]": {"molecular_target": "Tyrosine-protein kinase Lck (Homo sapiens) (UniProt P06239)", "assay": "Inhibition of DNA-tagged human LCK assessed as percent of control at 50000 nM by qPCR analysis relative to control"}, "[13]": {"molecular_target": "Mitogen-activated protein kinase kinase kinase kinase 5 (Homo sapiens) (UniProt Q9Y4K4)", "assay": "Inhibition of DNA-tagged human MAP4K5 assessed as percent of control at 50000 nM by qPCR analysis relative to control"}, "[14]": {"molecular_target": "Dual specificity mitogen-activated protein kinase kinase 2 (Homo sapiens) (UniProt P36507)", "assay": "Inhibition of DNA-tagged human MEK2 assessed as percent of control at 50000 nM by qPCR analysis relative to control"}, "[15]": {"molecular_target": "Serine/threonine-protein kinase MRCK beta (Homo sapiens) (UniProt Q9Y5S2)", "assay": "Inhibition of DNA-tagged human MRCKB assessed as percent of control at 50000 nM by qPCR analysis relative to control"}, "[16]": {"molecular_target": "Serine/threonine-protein kinase 4 (Homo sapiens) (UniProt Q13043)", "sequence (Q13043 whole entry)": "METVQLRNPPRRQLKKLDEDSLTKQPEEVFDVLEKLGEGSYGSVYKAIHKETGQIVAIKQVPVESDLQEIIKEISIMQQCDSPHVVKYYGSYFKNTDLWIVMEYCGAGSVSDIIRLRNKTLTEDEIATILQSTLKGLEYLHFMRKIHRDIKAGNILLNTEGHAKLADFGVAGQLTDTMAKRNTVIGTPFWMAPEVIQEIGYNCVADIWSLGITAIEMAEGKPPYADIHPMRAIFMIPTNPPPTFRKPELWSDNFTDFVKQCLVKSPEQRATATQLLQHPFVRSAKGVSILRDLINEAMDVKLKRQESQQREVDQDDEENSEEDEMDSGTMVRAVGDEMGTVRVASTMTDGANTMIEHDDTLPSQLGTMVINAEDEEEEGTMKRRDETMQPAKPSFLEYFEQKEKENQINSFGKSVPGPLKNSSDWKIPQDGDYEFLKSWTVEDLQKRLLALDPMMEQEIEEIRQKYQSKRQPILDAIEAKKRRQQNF", "assay": "Inhibition of DNA-tagged human MST1 assessed as percent of control at 50000 nM by qPCR analysis relative to control"}, "[17]": {"molecular_target": "Macrophage-stimulating protein receptor (Homo sapiens) (UniProt Q04912)", "assay": "Inhibition of DNA-tagged human MST1R assessed as percent of control at 50000 nM by qPCR analysis relative to control"}, "[18]": {"molecular_target": "Muscle, skeletal receptor tyrosine-protein kinase (Homo sapiens) (UniProt O15146)", "assay": "Inhibition of DNA-tagged human MUSK assessed as percent of control at 50000 nM by qPCR analysis relative to control"}, "[19]": {"molecular_target": "Myosin-IIIb (Homo sapiens) (UniProt Q8WXR4)", "sequence (Q8WXR4 whole entry)": "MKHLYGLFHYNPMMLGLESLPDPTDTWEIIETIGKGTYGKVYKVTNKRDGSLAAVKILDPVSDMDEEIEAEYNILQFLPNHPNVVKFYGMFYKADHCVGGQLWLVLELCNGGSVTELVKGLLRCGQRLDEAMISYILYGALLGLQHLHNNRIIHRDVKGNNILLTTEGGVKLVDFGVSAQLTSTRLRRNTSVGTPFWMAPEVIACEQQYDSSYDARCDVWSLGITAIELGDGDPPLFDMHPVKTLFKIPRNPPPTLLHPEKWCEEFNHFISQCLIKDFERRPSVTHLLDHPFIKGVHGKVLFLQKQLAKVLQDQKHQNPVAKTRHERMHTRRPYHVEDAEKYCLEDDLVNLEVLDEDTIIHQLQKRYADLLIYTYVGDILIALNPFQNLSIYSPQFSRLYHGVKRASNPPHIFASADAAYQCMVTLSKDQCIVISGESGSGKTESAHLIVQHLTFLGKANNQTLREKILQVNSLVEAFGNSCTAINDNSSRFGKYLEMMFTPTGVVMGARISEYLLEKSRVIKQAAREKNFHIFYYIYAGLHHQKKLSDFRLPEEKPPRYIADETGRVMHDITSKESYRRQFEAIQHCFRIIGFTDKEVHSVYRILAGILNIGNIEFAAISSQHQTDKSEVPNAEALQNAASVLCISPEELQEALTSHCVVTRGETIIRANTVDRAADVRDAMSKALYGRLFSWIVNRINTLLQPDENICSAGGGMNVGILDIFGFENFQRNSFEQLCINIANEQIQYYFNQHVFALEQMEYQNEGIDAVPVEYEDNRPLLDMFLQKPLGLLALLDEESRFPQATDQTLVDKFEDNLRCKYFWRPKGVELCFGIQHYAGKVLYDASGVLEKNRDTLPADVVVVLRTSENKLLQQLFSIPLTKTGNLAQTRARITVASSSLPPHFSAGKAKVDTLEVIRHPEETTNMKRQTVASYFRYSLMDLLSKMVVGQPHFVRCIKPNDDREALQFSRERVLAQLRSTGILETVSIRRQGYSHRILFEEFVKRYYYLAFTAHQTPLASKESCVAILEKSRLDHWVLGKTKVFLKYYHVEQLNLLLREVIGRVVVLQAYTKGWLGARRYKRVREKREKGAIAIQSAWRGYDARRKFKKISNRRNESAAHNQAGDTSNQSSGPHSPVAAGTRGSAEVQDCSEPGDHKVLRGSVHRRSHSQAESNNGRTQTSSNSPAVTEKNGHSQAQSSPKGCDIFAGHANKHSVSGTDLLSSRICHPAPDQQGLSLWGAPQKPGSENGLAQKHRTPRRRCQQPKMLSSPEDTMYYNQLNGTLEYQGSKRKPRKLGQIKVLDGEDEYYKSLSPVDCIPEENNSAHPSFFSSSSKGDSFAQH", "assay": "Inhibition of DNA-tagged human MYO3B assessed as percent of control at 50000 nM by qPCR analysis relative to control"}, "[20]": {"molecular_target": "Serine/threonine-protein kinase Nek4 (Homo sapiens) (UniProt P51957)", "sequence (P51957 whole entry, looked up)": "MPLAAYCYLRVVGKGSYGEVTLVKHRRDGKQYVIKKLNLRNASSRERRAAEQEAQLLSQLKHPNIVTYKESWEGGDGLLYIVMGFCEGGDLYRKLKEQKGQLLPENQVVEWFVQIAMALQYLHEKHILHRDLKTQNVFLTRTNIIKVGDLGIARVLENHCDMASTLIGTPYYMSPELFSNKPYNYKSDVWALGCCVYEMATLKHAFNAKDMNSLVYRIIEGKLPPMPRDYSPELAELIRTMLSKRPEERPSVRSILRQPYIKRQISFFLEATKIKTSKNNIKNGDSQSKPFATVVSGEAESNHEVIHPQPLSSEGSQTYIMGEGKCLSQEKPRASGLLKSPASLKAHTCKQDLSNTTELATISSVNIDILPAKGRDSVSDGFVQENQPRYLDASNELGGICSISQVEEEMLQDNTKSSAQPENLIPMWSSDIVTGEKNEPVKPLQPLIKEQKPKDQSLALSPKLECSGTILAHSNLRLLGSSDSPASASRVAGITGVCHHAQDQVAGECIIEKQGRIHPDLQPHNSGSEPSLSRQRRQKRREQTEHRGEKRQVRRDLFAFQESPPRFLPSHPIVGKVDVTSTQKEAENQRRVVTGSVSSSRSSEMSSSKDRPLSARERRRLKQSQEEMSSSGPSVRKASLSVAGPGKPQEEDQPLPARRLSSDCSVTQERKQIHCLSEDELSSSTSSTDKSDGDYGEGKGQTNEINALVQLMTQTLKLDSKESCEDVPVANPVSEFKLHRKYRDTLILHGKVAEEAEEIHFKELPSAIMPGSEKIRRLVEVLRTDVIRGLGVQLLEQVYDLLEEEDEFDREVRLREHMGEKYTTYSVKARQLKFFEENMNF", "assay": "Inhibition of DNA-tagged human NEK4 assessed as percent of control at 50000 nM by qPCR analysis relative to control"}, "[21]": {"molecular_target": "Serine/threonine-protein kinase Nek7 (Homo sapiens) (UniProt Q8TDX7)", "assay": "Inhibition of DNA-tagged human NEK7 assessed as percent of control at 50000 nM by qPCR analysis relative to control"}, "[22]": {"molecular_target": "Mitogen-activated protein kinase 11 (Homo sapiens) (UniProt Q15759)", "assay": "Inhibition of DNA-tagged human p38-beta assessed as percent of control at 50000 nM by qPCR analysis relative to control"}, "[23]": {"molecular_target": "Mitogen-activated protein kinase 13 (Homo sapiens) (UniProt O15264)", "assay": "Inhibition of DNA-tagged human p38-delta assessed as percent of control at 50000 nM by qPCR analysis relative to control"}, "[24]": {"molecular_target": "RAF proto-oncogene serine/threonine-protein kinase (Homo sapiens) (UniProt P04049)", "assay": "Inhibition of DNA-tagged human RAF1 assessed as percent of control at 50000 nM by qPCR analysis relative to control"}, "[25]": {"molecular_target": "Ribosomal protein S6 kinase alpha-1 (Homo sapiens) (UniProt Q15418)", "sequence (Q15418 whole entry, the tested form may be a part)": "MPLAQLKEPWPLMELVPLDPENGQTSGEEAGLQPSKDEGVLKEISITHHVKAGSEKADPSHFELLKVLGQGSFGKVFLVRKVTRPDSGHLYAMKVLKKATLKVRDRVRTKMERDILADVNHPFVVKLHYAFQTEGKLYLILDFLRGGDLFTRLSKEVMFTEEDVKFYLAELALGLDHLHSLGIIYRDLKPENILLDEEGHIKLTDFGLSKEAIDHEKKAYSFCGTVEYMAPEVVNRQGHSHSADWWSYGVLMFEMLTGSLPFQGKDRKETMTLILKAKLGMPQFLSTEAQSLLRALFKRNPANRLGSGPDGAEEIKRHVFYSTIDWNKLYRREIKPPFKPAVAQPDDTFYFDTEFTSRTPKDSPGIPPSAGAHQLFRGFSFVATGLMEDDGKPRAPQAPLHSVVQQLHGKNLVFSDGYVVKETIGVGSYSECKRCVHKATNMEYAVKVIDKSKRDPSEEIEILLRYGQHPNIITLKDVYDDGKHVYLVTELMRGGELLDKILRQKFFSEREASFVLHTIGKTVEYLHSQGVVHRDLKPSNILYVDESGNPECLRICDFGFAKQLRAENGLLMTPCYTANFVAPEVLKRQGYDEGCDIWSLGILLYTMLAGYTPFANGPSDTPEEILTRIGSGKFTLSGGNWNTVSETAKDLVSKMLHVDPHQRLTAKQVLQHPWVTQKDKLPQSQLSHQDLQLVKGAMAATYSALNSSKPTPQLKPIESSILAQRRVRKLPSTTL", "assay": "Inhibition of DNA-tagged human C-terminal RSK1 kinase domain 2 assessed as percent of control at 50000 nM by qPCR analysis relative to control"}, "[26]": {"molecular_target": "Ribosomal protein S6 kinase alpha-6 (Homo sapiens) (UniProt Q9UK32)", "assay": "Inhibition of DNA-tagged human N-terminal RSK4 kinase domain 1 assessed as percent of control at 50000 nM by qPCR analysis relative to control"}, "[27]": {"molecular_target": "Serine/threonine-protein kinase Sgk3 (Homo sapiens) (UniProt Q96BR1)", "assay": "Inhibition of DNA-tagged human SGK3 assessed as percent of control at 50000 nM by qPCR analysis relative to control"}, "[28]": {"molecular_target": "SRSF protein kinase 3 (Homo sapiens) (UniProt Q9UPE1)", "assay": "Inhibition of DNA-tagged human SRPK3 assessed as percent of control at 50000 nM by qPCR analysis relative to control"}, "[29]": {"molecular_target": "Serine/threonine-protein kinase TAO3 (Homo sapiens) (UniProt Q9H2K8)", "sequence (Q9H2K8 whole entry)": "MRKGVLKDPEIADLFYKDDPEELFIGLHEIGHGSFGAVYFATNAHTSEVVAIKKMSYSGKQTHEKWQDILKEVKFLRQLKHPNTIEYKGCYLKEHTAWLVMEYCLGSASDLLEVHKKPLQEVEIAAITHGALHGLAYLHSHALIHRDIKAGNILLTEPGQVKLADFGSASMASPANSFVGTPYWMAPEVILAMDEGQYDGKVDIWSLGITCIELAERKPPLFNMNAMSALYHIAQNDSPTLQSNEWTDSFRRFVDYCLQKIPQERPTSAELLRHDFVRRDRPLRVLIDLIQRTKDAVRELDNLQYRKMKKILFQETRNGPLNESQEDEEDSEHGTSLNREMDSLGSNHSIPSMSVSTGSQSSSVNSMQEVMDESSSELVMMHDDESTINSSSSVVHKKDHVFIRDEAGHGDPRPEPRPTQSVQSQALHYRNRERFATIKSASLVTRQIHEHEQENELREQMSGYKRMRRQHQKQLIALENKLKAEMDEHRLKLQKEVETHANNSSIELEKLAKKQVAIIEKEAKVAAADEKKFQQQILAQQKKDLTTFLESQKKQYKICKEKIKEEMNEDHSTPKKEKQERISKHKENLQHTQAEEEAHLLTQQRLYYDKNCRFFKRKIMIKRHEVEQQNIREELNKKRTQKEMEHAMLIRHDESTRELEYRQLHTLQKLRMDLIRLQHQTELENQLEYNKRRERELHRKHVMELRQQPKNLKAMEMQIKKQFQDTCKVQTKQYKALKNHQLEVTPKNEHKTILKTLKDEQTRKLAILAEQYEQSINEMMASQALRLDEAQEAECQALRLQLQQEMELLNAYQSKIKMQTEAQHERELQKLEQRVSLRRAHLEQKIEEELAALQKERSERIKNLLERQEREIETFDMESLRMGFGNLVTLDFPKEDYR", "assay": "Inhibition of DNA-tagged human TAOK3 assessed as percent of control at 50000 nM by qPCR analysis relative to control"}, "[30]": {"molecular_target": "Serine/threonine-protein kinase ULK3 (Homo sapiens) (UniProt Q6PHR2)", "sequence (Q6PHR2 whole entry)": "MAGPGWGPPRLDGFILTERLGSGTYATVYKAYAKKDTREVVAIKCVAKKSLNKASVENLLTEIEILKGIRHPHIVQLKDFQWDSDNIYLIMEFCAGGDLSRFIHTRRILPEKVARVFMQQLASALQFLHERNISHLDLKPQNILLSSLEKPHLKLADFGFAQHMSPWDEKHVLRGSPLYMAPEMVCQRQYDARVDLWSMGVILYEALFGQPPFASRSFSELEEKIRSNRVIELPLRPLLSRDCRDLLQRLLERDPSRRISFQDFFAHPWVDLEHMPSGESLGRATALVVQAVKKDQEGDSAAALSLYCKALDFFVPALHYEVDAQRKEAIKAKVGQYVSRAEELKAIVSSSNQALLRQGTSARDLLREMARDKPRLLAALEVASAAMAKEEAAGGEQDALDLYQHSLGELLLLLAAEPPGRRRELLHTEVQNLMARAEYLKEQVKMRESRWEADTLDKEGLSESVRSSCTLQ", "assay": "Inhibition of DNA-tagged human ULK3 assessed as percent of control at 50000 nM by qPCR analysis relative to control"}}, "data": [{"compound": "CN1C(=O)/C(=C2/C(=O)Nc3ccccc32)c2ccccc21", "values": [{"measurement": "Activity", "setting": "[1]", "value": 100, "unit": "%"}, {"measurement": "Activity", "setting": "[2]", "value": 100, "unit": "%"}, {"measurement": "Activity", "setting": "[3]", "value": 100, "unit": "%"}, {"measurement": "Activity", "setting": "[4]", "value": 91, "unit": "%"}, {"measurement": "Activity", "setting": "[5]", "value": 100, "unit": "%"}, {"measurement": "Activity", "setting": "[6]", "value": 90, "unit": "%"}, {"measurement": "Activity", "setting": "[7]", "value": 86, "unit": "%"}, {"measurement": "Activity", "setting": "[8]", "value": 82, "unit": "%"}, {"measurement": "Activity", "setting": "[9]", "value": 97, "unit": "%"}, {"measurement": "Activity", "setting": "[10]", "value": 81, "unit": "%"}, {"measurement": "Activity", "setting": "[11]", "value": 100, "unit": "%"}, {"measurement": "Activity", "setting": "[12]", "value": 96, "unit": "%"}, {"measurement": "Activity", "setting": "[13]", "value": 100, "unit": "%"}, {"measurement": "Activity", "setting": "[14]", "value": 89, "unit": "%"}, {"measurement": "Activity", "setting": "[15]", "value": 83, "unit": "%"}, {"measurement": "Activity", "setting": "[16]", "value": 95, "unit": "%"}, {"measurement": "Activity", "setting": "[17]", "value": 92, "unit": "%"}, {"measurement": "Activity", "setting": "[18]", "value": 86, "unit": "%"}, {"measurement": "Activity", "setting": "[19]", "value": 100, "unit": "%"}, {"measurement": "Activity", "setting": "[20]", "value": 86, "unit": "%"}, {"measurement": "Activity", "setting": "[21]", "value": 59, "unit": "%"}, {"measurement": "Activity", "setting": "[22]", "value": 100, "unit": "%"}, {"measurement": "Activity", "setting": "[23]", "value": 100, "unit": "%"}, {"measurement": "Activity", "setting": "[24]", "value": 100, "unit": "%"}, {"measurement": "Activity", "setting": "[25]", "value": 84, "unit": "%"}, {"measurement": "Activity", "setting": "[26]", "value": 99, "unit": "%"}, {"measurement": "Activity", "setting": "[27]", "value": 68, "unit": "%"}, {"measurement": "Activity", "setting": "[28]", "value": 100, "unit": "%"}, {"measurement": "Activity", "setting": "[29]", "value": 85, "unit": "%"}, {"measurement": "Activity", "setting": "[30]", "value": 85, "unit": "%"}]}]}
